Measured values reported in patent US4103005A, “Novel-enkephalin analogs” (Hoffmann-La Roche Inc., priority 1977, dated 1978).
Where a SMILES comes first, the peptide text is derived from it. [ ]: non-standard residue; d: D form. Thz = O=C(O)[C@@H]1CSCN1

What was measured:
[1] = tested on: male ICR mice; experiment: Analgesic assay by the tail-flick method in mice; format: in vivo; details: for Intracerebroventricular AD50 (median antinociceptive dose) / Intracerebroventricular potency ratio / Intravenous AD50 (median antinociceptive dose) / Intravenous potency ratio: mice; for Intracerebroventricular AD50 (median antinociceptive dose): intracerebroventricular (central) injection; for Intracerebroventricular AD50 (median antinociceptive dose) / Intravenous AD50 (median antinociceptive dose): tail-flick; for Intracerebroventricular potency ratio / Intravenous potency ratio: relative to morphine sulfate = 1, molar basis; for Intravenous AD50 (median antinociceptive dose): intravenous injection via tail vein; for Tail-flick inhibition after intravenous injection: 1.1 to 8.5 mg/kg injected intravenously; for Effect of naloxone pretreatment on inhibition of the tail-flick response: Naloxone HCl 3 mg/kg subcutaneously 5 min before the analog; for Tail-flick inhibition after central application: doses 0.17 to 0.85 μg (D-Met analog) and 0.011 to 0.085 μg (D-Thr analog); for Analgesic activity (summary statement): mouse, in vivo
Protocol: For analgesic assay, male ICR mice weighing 25-30 g were used in all the experiments. The enkephalin analogs dissolved in saline were administered either centrally according to the method described by Haley and McCormick, Br. J. Pharmacol, 12, 12 (1957) or intravenously via the tail vein. The injection volume is 5 μl for central injection and 10 μl per gram body weight for intravenous injection. Naloxone HCl (3 mg/kg) was injected subcutaneously 5 min before the administration of enkephalin analogs. Analgesic activity was assayed by the tail-flick method of D'Amour and Smith, J. Pharmacol, Exp. Ther. 72, 74 (1941).
The percent of analgesia was calculated as [(T1 -T0)/(T2 -T0)] × 100, where a control latency (T0) was obtained from the mean of two latencies determined before drug injection; the test latencies (T1) were determined at various times after injection for each animal; the cutoff time (T2) for the tail-flick was 7 seconds. The median analgesic dose (AD50) and 95% confidence limits were calculated according to the method of Litchfield and Wilcoxon, J. Pharacol. Exp. Ther. 96, 99 (1949). The locomotor activity to the mice was measured with an electronic Fe 40 motility meter (Motron Produkter, Stockholm, Sweden). The detail of the experimental method has been described by Tseng et al., Nature (London) 263, 239 (1976).

[2] = cited from earlier work; for Analgesic activity reported in the literature: in vivo
[3] = tested on: male ICR mice; details: cited from earlier work

Compound	Intracerebroventricular AD50 (median antinociceptive dose) [1]	Intracerebroventricular potency ratio [1]	Intravenous AD50 (median antinociceptive dose) [1]	Intravenous potency ratio [1]	further results
D-Ala^2,D-Leu^5 -Enkephalin [reference compound]	0.035 nmole/mouse	31.7			
CN1CC[C@]23c4c5ccc(O)c4O[C@H]2[C@@H](O)C=C[C@H]3[C@H]1C5.O=S(=O)(O)O [Morphine sulfate, reference compound]	1.11 nmole/mouse		11.4 µmol/kg		
[D-Met^2, Pro^5 ]-enkephalinamide					Analgesic activity reported in the literature [2]: potent analgesic agent
βc -Endorphin (YGGFMTSEKSQTPLVTLFKNAIIKNAHKKGQ; Beta-endorphin; UniProt P01203 1-31, looked up) [reference compound]	0.032 nmole/mouse	34.7	2.7 µmol/kg	4.2	Locomotor activity (previously shown) [3]: stimulate locomotor activity weakly or not at all
CSCC[C@@H](NC(=O)[C@@H](N)Cc1ccc(O)cc1)C(=O)NCC(=O)N[C@@H](Cc1ccccc1)C(=O)N1CSC[C@H]1C(N)=O [D-Met^2,Thz^5 -Enkephalinamide, H-Tyr-D-Met-Gly-Phe-Thz-NH2] (H-Y[dM]GF[Thz]-NH2)	0.145 nmole/mouse	7.7	2.71 µmol/kg	4.2	Tail-flick inhibition after intravenous injection [1]: active in inhibiting the tail-flick response; Effect of naloxone pretreatment on inhibition of the tail-flick response [1]: blocked by the pretreatment of naloxone; AD50, times higher than [D-Thr^2,Thz^5 ]-enkephalinamide ([1]; applied centrally): 3.5 times; Tail-flick inhibition after central application ([1]; applied centrally): dose-related increase in intensity and duration of the tail-flick inhibition; Analgesic activity (summary statement) [1]: potent analgesic agents
D-Ala^2, MePhe^4, Met-O^5 -ol enkephalin					Analgesic activity reported in the literature [2]: most potent analgesic of the group; Oral activity reported in the literature ([2]; oral): orally active
C[C@H](O)[C@@H](NC(=O)[C@@H](N)Cc1ccc(O)cc1)C(=O)NCC(=O)N[C@@H](Cc1ccccc1)C(=O)N1CSC[C@H]1C(N)=O [D-Thr^2,Thz^5 -Enkephalinamide, H-Tyr-D-Thr-Gly-Phe-Thz-NH2] (H-Y[dT]GF[Thz]-NH2)	0.04 nmole/mouse	27.1	2.40 µmol/kg	4.8	Tail-flick inhibition after intravenous injection [1]: active in inhibiting the tail-flick response; Effect of naloxone pretreatment on inhibition of the tail-flick response [1]: blocked by the pretreatment of naloxone; Potency, times more potent than [D-Met^2, Thz^5 ]-enkephalinamide ([1]; applied centrally): 3.5 times; Tail-flick inhibition after central application ([1]; applied centrally): dose-related increase in intensity and duration of the tail-flick inhibition; Duration of analgesia ([1]; intravenous injection): longer than that produced by [D-Met^2,Thz^5 ]-enkephalinamide; Analgesic activity (summary statement) [1]: potent analgesic agents
Met-enkephalin [reference compound]	> 174 nmole/mouse	< 0.006	> 60 µmol/kg	< 0.19	
